Measurements from US5430032A, “Benzopyrido piperidylidene compounds, compositions, methods of manufacture and methods of use” (Schering Corporation, priority 1994, dated 1995).
pIC50: −log10 of the molar value.

How the values were obtained:
[1] = test system: PAF; assay: PAF-induced bronchospasm in guinea pigs (in vivo, oral); parameters: species or system guinea pig; conditions: for effect on the PAF response, compared with the histamine response: both responses at similar doses, in words; for Agonist Bronchospasm (in vivo)-Oral, PAF, Inhibition: 2 hours after dose, PAF 0.4 μg/kg i.v.
[2] = test system: Histamine; assay: Histamine-induced bronchospasm in guinea pigs (in vivo, oral); parameters: species or system guinea pig; conditions: for effect on the histamine response, compared with the PAF response: both responses at similar doses, in words; for Agonist Bronchospasm (in vivo)-Oral, Histamine, Inhibition: 2 hours after dose, histamine 10 ug/kg i.v.
[3] = test system: platelet-activating factor (PAF); assay: Platelet aggregation assay (PAF-induced aggregation, human platelet-rich plasma); type: cell-based; conditions: PAF-induced aggregation of human platelets, in vitro, read-out: PAF Antagonism (in vitro) IC50
Method: Platelet-activating factor (PAF) causes aggregation of platelets by a receptor-mediated mechanism. Therefore, PAF-induced platelet aggregation provides a simple and convenient assay to screen compounds for PAF antagonism. Human blood (50 mL) was collected from healthy male donors in an anticoagulant solution (5 mL) containing sodium citrate (3.8%) and dextrose (2%). Blood was centrifuged at 110×g for 15 min. and the supernatant platelet-rich plasma (PRP) carefully transferred into a polypropylene tube. Platelet-poor-plasma (PPP) was prepared by centrifuging PRP at 12,000×g for 2 min. (Beckman Microfuge B). PRP was used within 3 hr. of drawing the blood. PAF was dissolved in chloroform:methanol (1:1, v/v) at a concentration of 2 mg/mL and stored at -70° C. An aliquot of this solution was transferred to a polypropylene tube and dried under a flow of nitrogen gas. To the dried sample was added Hepes-saline-BSA (BSA=bovine serum albumen) buffer (25 mM Hepes, pH 7.4, […], 0.7 mM MgCl2 and 0.1% BSA) to obtain a 1 mM solution and sonicated for 5 min. in a bath sonicator. This stock solution was further diluted to appropriate concentrations in Hepes-saline-BSA buffer. Collagen (Sigma) and adenosine diphosphate (ADP) (Sigma) were purchased as solutions. Test compounds were initially dissolved in dimethyl sulfoxide (DMSO) at a concentration of 50 mM and then further diluted in Hepes-saline-BSA buffer to achieve appropriate concentrations.
When an aggregating agent such as PAF is added to PRP, platelets aggregate. An aggregometer quantifies this aggregation by measuring and comparing light (infra-red) transmission through PPP and PRP. Aggregation assays were performed using a dual-channel aggregometer (Model 440, Chrono-Log Corp., Havertown, Pa.). PRP (0.45 mL) in aggregometer cuvettes was continually stirred (37° C.). Solutions (50 μL) of test compounds or vehicle were added to the PRP and, after incubation for 2 min., 10-15 μl aliquots of PAF solution were added to achieve a final concentration of 1-5×10^-8 M. In different experiments the aggregatory response was kept within a set limit by varying the concentration of PAF. Incubations were continued until the increase in light transmission reached a maximum (usually 2 min.). This increase in light transmission reflecting platlet aggregation is transmitted to a computer by the Chrono-Log model 810 AGGRO/LINK interface. The AGGRO/LINK calculates the slope of transmission change, thus providing the rate of aggregation. Values for inhibition were calculated by comparing rates of aggregation obtained in the absence and the presence of the compound. For each experiment, a standard PAF antagonist such as 8-chloro-6,11-dihydro-11-(1-acetyl-4-piperidylidene)-5H-benzo[5,6]cyclohepta[1,2-b]pyridine was used as a positive control.
Compounds that inhibit PAF-induced aggregation were tested against several other aggregating agents including collagen (0.2 mg/mL) and ADP (2 μM). Compounds showing no activity against these latter agents were considered to be specific PAF antagonists.

Structure (SMILES) | pIC50 [3] | effect on the PAF response, compared with the histamine response [1] | Agonist Bronchospasm (in vivo)-Oral, PAF, Inhibition ([1]; 5 mg/kg) [%] | effect on the histamine response, compared with the PAF response [2] | Agonist Bronchospasm (in vivo)-Oral, Histamine, Inhibition ([2]; 3 mg/kg) [%] | Agonist Bronchospasm (in vivo)-Oral, PAF, Inhibition ([1]; 3 mg/kg) [%] | Agonist Bronchospasm (in vivo)-Oral, PAF, Inhibition ([1]; 1 mg/kg) [%] | Agonist Bronchospasm (in vivo)-Oral, Histamine, Inhibition ([2]; 10 mg/kg) [%]
CC(=O)N1CCC(=C2c3ccc(Cl)cc3CCc3cccnc32)CC1 [Compound 1] | 6.22 | there is an effect on both responses at similar doses | 49 | there is an effect on both responses at similar doses | 49 |  |  | 
O=C(c1cc[n+]([O-])cc1)N1CCC(=C2c3ccc(Cl)cc3CCc3cccnc32)CC1 [Compound 2] | 6.70 | there is an effect on both responses at similar doses |  | there is an effect on both responses at similar doses | 37 | 93 |  | 
O=C(c1cc[n+]([O-])cc1)N1CCN(C2c3ccc(Cl)cc3SCc3cccnc32)CC1 (stereo not shown) [Compound 5] | 6.52 |  |  |  |  |  | 38 | 9

More lines, in order of rising pIC50 [3], values ahead:

pIC50 [3] | Structure (SMILES) | effect on the PAF response, compared with the histamine response [1] | Agonist Bronchospasm (in vivo)-Oral, PAF, Inhibition ([1]; 5 mg/kg) [%] | effect on the histamine response, compared with the PAF response [2] | Agonist Bronchospasm (in vivo)-Oral, Histamine, Inhibition ([2]; 3 mg/kg) [%] | Agonist Bronchospasm (in vivo)-Oral, PAF, Inhibition ([1]; 3 mg/kg) [%] | Agonist Bronchospasm (in vivo)-Oral, PAF, Inhibition ([1]; 1 mg/kg) [%] | Agonist Bronchospasm (in vivo)-Oral, Histamine, Inhibition ([2]; 10 mg/kg) [%]
6.70 | O=C(c1cc[n+]([O-])cc1)N1CCN(C2c3ccc(Cl)cc3OCc3cccnc32)CC1 (stereo not shown) [Compound 4] |  |  |  | 5 |  | 68 | 
7.40 | O=C(c1cc[n+]([O-])cc1)N1CCC(=C2c3ccc(Cl)cc3SCc3cccnc32)CC1 [Compound 3] |  |  |  |  |  | 91 | 9
